Measured values reported in patent US4826847A, “Beta-blocking oxindole derivatives” (Boehringer Mannheim GmbH, priority 1984, dated 1989).
Counter-ions that a name gives are not always drawn. Like-named read-outs stand apart in the source and are kept apart here.

Legend:
livers = assay: denitration rate relative to isosorbide-5-mononitrate (Vrel): NO2 freed in perfusate of re-perfused rat livers; settings: rat liver perfusion 4 min, 5×10^-5 M/l, NO2 determined in the perfusate; high values = fast denitration
[1] = test system: increase of the frequency through isoprenaline; assay: β-blocking effectiveness: inhibition of isoprenaline-induced increase of the frequency in rabbits; type: in vivo, rabbit; settings: Oryctolagus cuniculus, iv, read-out: ID 50 fcor (dose which causes an inhibition of 50% of the increase of the frequency through isoprenaline)
[2] = rabbits, i.v., isoprenaline 1 mcg/kg i.v.

SMILES | Vrel (denitration rate in relation to isosorbide-5-mononitrate) (livers) | ED50 [1, 2] [mg/kg] | ED50 [1] [mg/kg]
CC(CCO[N+](=O)[O-])NCC(O)COc1cccc2c1C(=Cc1cccc(Cl)c1)C(=O)N2 (centres unmarked) [BV 4, 4-[2-hydroxy-3-(1-methyl-3-nitratopropylamino)-propoxy]-3-(3-chlorobenzylidene)-indolinone fumarate] | 1.22 | 1.09 | –
Cc1cc(C=C2C(=O)Nc3cccc(OCC(O)CNC(C)CCO[N+](=O)[O-])c32)[nH]n1 (centres unmarked) [BV 43, 4-[2-hydroxy-3-(1-methyl-3-nitratopropylamino)-propoxy]-3-(3-methylpyrazol-5-yl)-methyleneindolinone] | 0.83 | 0.0096 | –
CC(CCO[N+](=O)[O-])NCC(O)COc1cccc2c1NC(=O)C2 (centres unmarked) [1 (e), 7-[2-hydroxy-3-(1-methyl-3-nitratopropylamino)-propoxy]-indolinone fumarate] | 1.79 | – | –
CC(C)NCC(O)COc1cccc2[nH]ccc12 (centres unmarked) [Pindolol, reference compound] | – | 0.104 | –
Cc1cc(C=C2C(=O)Nc3cccc(OCC(O)CNCC(C)(C)CO[N+](=O)[O-])c32)[nH]n1 (centres unmarked) [4 (k), 4-[2-hydroxy-3-(2,2-dimethyl-3-nitratopropylamino)-propoxy]-3-(3-methylpyrazol-5-yl)-methyleneindolinone] | 1.88 | – | –
CC(C)(CCO[N+](=O)[O-])NCC(O)COc1cccc2c1C(=Cc1ccn[nH]1)C(=O)N2 (centres unmarked) [4 (g), 4-[2-hydroxy-3-(1,1-dimethyl-3-nitratopropylamino)-propoxy]-3-(pyrazol-5-yl)-methylene-indolinone hemifumarate] | 1.59 | 0.013 | –
COc1cccc(C=C2C(=O)Nc3cccc(OCC(O)CNC(C)CCO[N+](=O)[O-])c32)c1 (centres unmarked) [BV 9, 4-[2-hydroxy-3-(1-methyl-3-nitratopropylamino)-propoxy]-3-(3-methoxybenzylidene)-indolinone acetate] | 0.60 | 0.765 | –
CC(CCO[N+](=O)[O-])NCC(O)COc1ccc2c(c1)C(C(C)C)C(=O)N2 (centres unmarked) [1 (f), 5-[2-hydroxy-3-(1-methyl-3-nitratopropylamino)-propoxy]-3-isopropylindolinone] | 3.01 | – | –
CC(CC(C)O[N+](=O)[O-])NCC(O)COc1cccc2c1CC(=O)N2 (centres unmarked) [1 (b), 4-[2-hydroxy-3-(1,3-dimethyl-3-nitratopropylamino)-propoxy]-indolinone fumarate] | 2.02 | 0.0038 | –
CC(CCO[N+](=O)[O-])NCC(O)COc1cccc2c1C(=Cc1ccc([N+](=O)[O-])cc1)C(=O)N2 (centres unmarked) [BV 20, 4-[2-hydroxy-3-(1-methyl-3-nitratopropylamino)-propoxy]-3-(4-nitrobenzylidene)-indolinone] | 0.71 | – | 0.113
CC(CCO[N+](=O)[O-])NCC(O)COc1ccc2c(c1)CC(=O)N2 (centres unmarked) [1 (c), 5-[2-hydroxy-3-(1-methyl-3-nitratopropylamino)-propoxy]-indolinone fumarate] | 1.77 | 5.08 | –
CC(CCO[N+](=O)[O-])NCC(O)COc1cccc2c1C(=Cc1nc[nH]n1)C(=O)N2 (centres unmarked) [4 (d), 4-[2-hydroxy-3-(1-methyl-3-nitratopropylamino)-propoxy]-3-(1,2,4-triazol-3-yl)-methyleneindolinone fumarate] | 1.00 | 0.0096 | –
O=[N+]([O-])O[C@@H]1CO[C@H]2[C@@H]1OC[C@@H]2O [Isosorbide-5-mononitrate, isosorbide-5-mononitrate, reference compound] | 0.86 | – | –
CC(=O)O.CC(CCO[N+](=O)[O-])NCC(O)COc1cccc2c1C(=Cc1cc(=O)[nH]c(=O)[nH]1)C(=O)N2 (centres unmarked) [4 (f), 4-[2-hydroxy-3-(1-methyl-3-nitratopropylamino)-propoxy]-3-(uracil-4-yl)-methylene-indolinone acetate] | 1.80 | – | –
CC(CCO[N+](=O)[O-])NCC(O)COc1cccc2c1C(=Cc1ccc(C#N)cc1)C(=O)N2 (centres unmarked) [4 (j), 4-[2-hydroxy-3-(1-methyl-3-nitratopropylamino)-propoxy]-3-(4-cyanobenzylidene)-indolinone hemifumarate] | 0.49 | – | –
CC(CCO[N+](=O)[O-])NCC(O)COc1cccc2c1C(=Cc1ccccc1)C(=O)N2 (centres unmarked) [2 (c), 4-[2-hydroxy-3-(1-methyl-3-nitratopropylamino)-propoxy]-3-benzylideneindolinone fumarate] | 0.59 | 1.97 | –
CC(CCO[N+](=O)[O-])NCC(O)COc1cccc2c1C(=Cc1cccs1)C(=O)N2 (centres unmarked) [4 (b), 4-[2-hydroxy-3-(1-methyl-3-nitratopropylamino)-propoxy]-3-(thiophen-2-yl)-methylene-indolinone fumarate] | 0.54 | 0.0276 | –
CC(CCO[N+](=O)[O-])NCC(O)COc1cccc2c1C(=Cc1ccn[nH]1)C(=O)N2 (centres unmarked) [Example 2, 4-[2-Hydroxy-3-(1-methyl-3-nitratopropylamino)-propoxy]-3-(pyrazol-5-yl)-methyleneindolinone benzoate] | 1.12 | 0.011 | –
CC(CCO[N+](=O)[O-])NCC(O)COc1cccc2c1C(=Cc1ccccn1)C(=O)N2 (centres unmarked) [2 (b), 4-[2-hydroxy-3-(1-methyl-3-nitratopropylamino)-propoxy]-3-(pyridin-2-yl)-methylene-indolinone fumarate] | 0.86 | 0.172 | –
CC(CCO[N+](=O)[O-])NCC(O)COc1cccc2c1C(C)(C)C(=O)N2 (centres unmarked) [BV 2, 4-[2-hydroxy-3-(1-methyl-3-nitratopropylamino)-propoxy]-3,3-dimethylindolinone fumarate] | 2.99 | – | –
CC(CCO[N+](=O)[O-])NCC(O)COc1cccc2c1C(=Cc1ccco1)C(=O)N2 (centres unmarked) [4 (a), 4-[2-hydroxy-3-(1-methyl-3-nitratopropylamino)-propoxy]-3-(furan-2-yl)-methylene-indolinone fumarate] | 0.65 | 0.0096 | –
CC(CCO[N+](=O)[O-])NCC(O)COc1ccc2c(c1)C(C(C)c1ccccc1)C(=O)N2 (stereo not drawn) [1 (g), 5-[2-hydroxy-3-(1-methyl-3-nitratopropylamino)-propoxy]-3-(α-methylbenzyl)-indolinone hemifumarate] | 0.70 | 5.31 | –
CC(CCO[N+](=O)[O-])NCC(O)COc1ccc2c(c1)NC(=O)C2 (centres unmarked) [1 (d), 6-[2-hydroxy-3-(1-methyl-3-nitratopropylamino)-propoxy]-indolinone fumarate] | 1.81 | – | –
CC(C)(CNCC(O)COc1cccc2c1CC(=O)N2)CO[N+](=O)[O-] (centres unmarked) [BV 40, 4-[2-hydroxy-3-(2,2-dimethyl-3-nitratopropylamino)-propoxy]-indolinone hemifumarate] | 3.51 | 0.69 | –
CC(CC(C)O[N+](=O)[O-])NCC(O)COc1cccc2c1C(=Cc1ccn[nH]1)C(=O)N2 (centres unmarked) [4 (h), 4-[2-hydroxy-3-(1,3-dimethyl-3-nitratopropylamino)-propoxy]-3-pyrazol-5-yl)-methylene-indolinone fumarate] | 1.39 | 0.039 | –
CC(C)(CCO[N+](=O)[O-])NCC(O)COc1cccc2c1CC(=O)N2 (centres unmarked) [1 (a), 4-[2-hydroxy-3-(1,1-dimethyl-3-nitratopropylamino)-propoxy]-indolinone hemifumarate] | 1.23 | 0.015 | –
CC(CCO[N+](=O)[O-])NCC(O)COc1cccc2c1C(=Cc1ccc[nH]1)C(=O)N2 (centres unmarked) [2 (a), 4-[2-hydroxy-3-(1-methyl-3-nitratopropylamino)-propoxy]-3-(pyrrol-2-yl)-methylene-indolinone hemifumarate] | 2.40 | – | –
Cc1ccccc1C=C1C(=O)Nc2cccc(OCC(O)CNC(C)CCO[N+](=O)[O-])c21 (centres unmarked) [BV 6, 4-[2-hydroxy-3-(1-methyl-3-nitratopropylamino)-propoxy]-3-(2-methylbenzylidene)-indolinon fumarate] | 0.74 | > 4 | –
CC(=C1C(=O)Nc2ccc(OCC(O)CNC(C)CCO[N+](=O)[O-])cc21)c1ccccc1 (stereo not drawn) [1 (i), 5-[2-hydroxy-3-(1-methyl-3-nitratopropylamino)-propoxy]-3-(α-methylbenzylidene)-indolinone hemifumarate] | 0.81 | 3.36 | –
CC(CCO[N+](=O)[O-])NCC(O)COc1cccc2c1CC(=O)N2 (centres unmarked) [Example 1, 4-[2-hydroxy-3-(1-methyl-3-nitratopropylamino)-propoxy]-indolinone benzoate] | 1.60 | 0.0066 | –
